{"source": "patent US9808434B2", "about": "“Compound for treating cancer and diabetes” (CITY OF HOPE, priority 2011, dated 2017)", "key": {"B16-F0 melanoma": {"test_system": "B16-F0 melanoma", "assay_type": "in vivo", "experimental": "For melanoma studies, C57B mice (for syngeneic B16-F0 mouse melanoma model) and Hsd: Athymic nude nu/nu mice (for A2058 human melanoma mouse xenografts model), were obtained from Harlan, Indianapolis, Ind. All animal experiments were carried out in accordance with a protocol approved by the Institutional Animal Care and Use Committee (IACUC). In each model, ten 10-weeks-old mice were divided into two groups of 5 animals (treated with corn oil (vehicle), and COH-SR4 compound 4 mg/kg b.w.). All animals were injected with 2×10^6 melanoma cells suspensions in 100 μL of PBS, subcutaneously into one flank of each mouse. Treatment was started 10 days after the implantation to see palpable tumor growth. Treatment consisted of 0.1 mg of COH-SR4/mice in 200 μL corn oil by oral gavage alternate day. Control groups were treated with 200 μL corn oil by oral gavage alternate days. Animals were examined daily for signs of tumor growth. Tumors were measured in two dimensions using calipers. Photographs of animals were taken at day 1, day 10, day 14, day 18, day 20, day 30, and day 51 after subcutaneous injection, are shown for all groups. Photographs of tumors were also taken at day 20 (for syngeneic model), and at day 51 (for xenograft model).\nC57B mice for syngeneic model were obtained from Harlan, Indianapolis, Ind. All animal experiments were carried out in accordance with a protocol approved by the Institutional Animal Care and Use Committee (IACUC). Ten 10-weeks-old mice were divided into two groups of 5 animals (treated with corn oil (vehicle), and COH-SR4 4 mg/kg body weight). All 10 animals were injected with 1×10^6 mouse melanoma cells (B16-F0) suspensions in 100 μL of PBS, subcutaneously into one flank of each mouse. Treatment was started 10 days after the B16 melanoma cells implantation to see palpable tumor growth. Treatment consisted of 0.1 mg of COH-SR4/mice in 200 μL corn oil by oral gavage alternate day. Control groups were treated with 200 μL corn oil by oral gavage alternate day. Animals were examined daily for signs of tumor growth, and body weights were recorded. Tumors were measured in two dimensions using calipers. Photographs of animals were taken at day 1, day 10, day 14, day 18, and day 20 after subcutaneous injection, are shown for all groups. Photographs of tumors were also taken at day 20.\nC57B mice (for syngeneic B16-F0 mouse melanoma model) and Hsd: Athymic nude nu/nu mice (for A2058 human melanoma mouse xenografts model), were used for testing the impact of oral administration of COH-SR4 on melanoma progression in vivo models. In each model, ten 10-weeks-old mice were divided into two groups of 5 animals (treated with corn oil (vehicle), and COH-SR4 compound (4 mg/kg b.w.). All animals were injected with 2×10^6 melanoma cells suspensions in 100 μL of PBS, subcutaneously into one flank of each mouse. Treatment was started 10 days after the implantation of melanoma cells. Treatment consisted of 0.1 mg of COH-SR4/mice in 200 μL corn oil by oral gavage on alternate days. Control groups were treated with 200 μL corn oil by oral gavage alternate day. Animals were examined daily for signs of tumor growth and body weights were recorded. […] Animals were examined daily for signs of tumor growth. Tumors were measured in two dimensions using calipers. […] Tumors were measured in two dimensions using calipers and time-course analysis of tumor regression was performed during the study. […]"}, "Stat3, HIF-1α": {"test_system": "Stat3, HIF-1α", "assay": "Stat3 phosphorylation and HIF-1α expression in SKOV3, immunoblotting", "assay_type": "cell-based, human", "conditions": "SKOV3, 24 hours, 1-10 μM", "experimental": "SKOV3 cells were incubated with various concentrations of COH-SR4 (1˜10 μM) for 24 hours. Whole-cell lysates were analyzed by immunoblotting with antibodies against phosphorylated and total form of Stat3, Akt and MAPK, and HIF-1α. GAPDH was used as a loading control."}, "[1]": {"test_system": "undifferentiated 3T3-L1 cells", "assay": "Preadipocyte viability, MTT assay", "assay_type": "cell-based, mouse", "conditions": "3 days, 2.5-25 μM", "experimental": "Undifferentiated 3T3-LI cells were treated with COH-SR2, COH-SR3, COH-SR4, COH-SR7, LR23 or LR59 for 3 days at a concentration of 2.5 μM, 5 μM, 10 μM, 15 μM, 20 μM, or 25 μM. The cell viability for each treatment was determined by MTT assay (FIG. 7)."}, "[2]": {"test_system": "A2058, A101D and SK-Mel-28 melanoma cells", "assay": "Mitochondrial ROS, MitoSox Red", "assay_type": "cell-based, human", "conditions": "5 μM, 1 h", "experimental": "Briefly, cells (4×10^5 well) were seeded in a 6-well plate and incubated overnight. Twenty-four hours after plating, cells were treated with test compounds as indicated in each experiment. After washing with pre-warmed PBS, cells were incubated with fresh medium containing 5 μM MitoSox Red for 15 min at 37° C. The fluorescence intensity was measured at of 530ex/590em using flow cytometry (Cyan ADP). The cells only sample (no MitoSox dye added) was used as the background. Approximately 30,000 counts were made for each sample. Experiments were repeated for three times and at least duplicate samples were included in each experiment.\nMitochondrial ROS was measured by MitoSox Red according to the manufacturer's instructions (Molecular Probes, CA). The intensity of fluorescence was quantified by digital analysis of images obtained from confocal microscopy using Image Pro Premiere software (Media Cybernetics Inc., Bethesda, Md.) (A2058, FIG. 74A) or by flow cytometry (FIG. 74B). Cells were treated with either 5 μM of COH-SR4, rotenone (mitochondrial complex 1 inhibitor) or elesclomol for 1 h. *Results represent fold increase of ROS generation over control and are expressed as mean±SD from three independent experiments."}, "melanoma cells": {"test_system": "melanoma cells", "assay": "MTT assay, melanoma cell lines of various mutational status", "assay_type": "cell-based", "conditions": "48 h, regardless of mutational status; read-out: IC50 values across melanoma cell lines", "experimental": "Cell density measurements were performed using a hemocytometer to count reproductive cells resistant to staining with trypan blue. Approximately 20,000 cells were plated into each well of 96-well flat-bottomed micro-titer plates. After 12 h or 24 h incubation at 37° C., medium containing either COH-SR4 (ranging 0-200 μM) or elesclomol (ranging 0-20 μM) were added to the cells. After 24 h, 48 h or 96 h incubation, 20 μL of 5 mg/mL MTT were introduced to each well and incubated for 2 h. The plates were centrifuged and medium was decanted. Cells were subsequently dissolved in 100 μl DMSO with gentle shaking for 2 h at room temperature, followed by measurement of OD570 (91)."}}, "data": [{"smiles": "O=C(Nc1cc(Cl)cc(Cl)c1)Nc1cc(Cl)cc(Cl)c1", "note": "[COH-SR4, 1,3-bis(3,5-dichlorophenyl) urea]", "values": [{"measurement": "tumor cross-section areas compared to corn oil", "setting": "B16-F0 melanoma; Example 16, 4 mg/kg oral gavage alternate day", "value": "significantly smaller"}, {"measurement": "day of death", "setting": "B16-F0 melanoma; Example 16, 4 mg/kg, corn oil only died on day 20", "value": 48, "unit": "days"}, {"measurement": "tumor weights compared to corn oil", "setting": "B16-F0 melanoma; Example 16, day 20", "value": "significantly smaller"}, {"measurement": "tumor weight", "setting": "B16-F0 melanoma; Example 22, day 20, control 2.36±0.2 g", "value": "1.07 ± 0.2", "unit": "g"}, {"measurement": "survival", "setting": "B16-F0 melanoma; Example 22, vehicle censored by day 20±2", "value": "50 ± 5", "unit": "days"}, {"measurement": "phosphorylation of Stat3 and HIF-1α protein expression", "setting": "Stat3, HIF-1α", "value": "inhibited phosphorylation of Stat3 protein and HIF-1α protein expression"}, {"measurement": "growth of undifferentiated preadipocytes (MTT)", "setting": "[1]", "value": "inhibited growth of undifferentiated 3T3-L1 cells"}, {"measurement": "mitochondrial ROS production (MitoSox Red)", "setting": "[2]", "value": "induced ROS production"}, {"measurement": "IC50", "setting": "melanoma cells", "value": "1.2 to 4.8", "unit": "µM"}]}]}
